Measurements published in paper PMC3026633 (Neuropharmacology, 2010).

Key:
α1β2P206Cγ2 GABAR = α1β2P206Cγ2 GABAR (Rattus norvegicus, UniProt P18508+P62813+P63138, P230C); assay: Two-electrode voltage clamp of GABA-gated current in Xenopus oocytes; type: cell-based; details: 100nM DMCM, saturating
wild-type α1β2γ2 GABAR = wild-type α1β2γ2 GABAR (Rattus norvegicus, UniProt P18508+P62813+P63138); details: WT GABARs; DMCM; ref Boileau and Czajkowski, 1999; Hanson and Czajkowski, 2008; cited from earlier work
Chain of wild-type α1β2γ2 GABAR (P62813 28-455): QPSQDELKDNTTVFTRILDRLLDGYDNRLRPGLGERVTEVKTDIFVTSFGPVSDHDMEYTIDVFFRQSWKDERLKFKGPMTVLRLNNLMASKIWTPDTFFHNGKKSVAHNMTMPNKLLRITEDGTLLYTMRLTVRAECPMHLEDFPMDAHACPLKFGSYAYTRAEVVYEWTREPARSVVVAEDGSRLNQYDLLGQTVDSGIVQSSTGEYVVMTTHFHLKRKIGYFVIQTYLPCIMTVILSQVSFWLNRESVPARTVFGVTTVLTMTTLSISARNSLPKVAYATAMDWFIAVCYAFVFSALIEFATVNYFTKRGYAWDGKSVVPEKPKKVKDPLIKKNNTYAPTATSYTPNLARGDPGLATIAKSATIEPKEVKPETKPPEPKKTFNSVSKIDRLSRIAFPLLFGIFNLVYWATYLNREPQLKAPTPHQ
Chain of wild-type α1β2γ2 GABAR (P63138 25-474 limits assumed): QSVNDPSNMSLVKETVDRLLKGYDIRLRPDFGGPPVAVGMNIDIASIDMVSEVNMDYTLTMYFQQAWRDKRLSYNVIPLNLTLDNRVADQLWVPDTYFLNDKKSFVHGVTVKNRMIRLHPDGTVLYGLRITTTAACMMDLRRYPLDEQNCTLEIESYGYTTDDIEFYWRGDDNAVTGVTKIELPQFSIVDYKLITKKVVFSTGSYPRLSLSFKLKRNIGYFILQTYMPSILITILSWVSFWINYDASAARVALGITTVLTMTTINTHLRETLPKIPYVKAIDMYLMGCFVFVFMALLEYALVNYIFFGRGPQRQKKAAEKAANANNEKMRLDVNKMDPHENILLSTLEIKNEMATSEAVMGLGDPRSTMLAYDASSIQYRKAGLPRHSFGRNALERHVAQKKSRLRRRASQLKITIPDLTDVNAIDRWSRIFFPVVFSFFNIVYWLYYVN
Chain of wild-type α1β2γ2 GABAR (P18508 39-466): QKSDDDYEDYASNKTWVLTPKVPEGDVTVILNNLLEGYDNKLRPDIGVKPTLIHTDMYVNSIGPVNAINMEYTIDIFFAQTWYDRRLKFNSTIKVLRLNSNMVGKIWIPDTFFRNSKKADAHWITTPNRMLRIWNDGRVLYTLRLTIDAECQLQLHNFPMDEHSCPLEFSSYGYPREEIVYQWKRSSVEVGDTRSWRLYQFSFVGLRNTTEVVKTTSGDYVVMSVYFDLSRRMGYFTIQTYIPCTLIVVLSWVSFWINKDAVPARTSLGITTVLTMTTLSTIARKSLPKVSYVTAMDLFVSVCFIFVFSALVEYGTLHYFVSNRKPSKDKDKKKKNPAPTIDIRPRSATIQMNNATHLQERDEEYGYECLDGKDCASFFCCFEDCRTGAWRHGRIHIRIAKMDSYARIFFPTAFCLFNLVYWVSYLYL

α1E122Cβ2γ2 GABAR = α1E122Cβ2γ2 GABAR (Rattus norvegicus, UniProt P18508+P62813+P63138, E149C); assay: Two-electrode voltage clamp of GABA-gated current in Xenopus oocytes; type: cell-based
Chain of α1E122Cβ2γ2 GABAR (P62813 28-455 E149C): as the sequence (P62813 28-455) above, with E122C counted along it
Chain of α1E122Cβ2γ2 GABAR (P63138 25-474 limits assumed): as the sequence (P63138 25-474 limits assumed) above
Chain of α1E122Cβ2γ2 GABAR (P18508 39-466): as the sequence (P18508 39-466) above

α1R131Cβ2γ2 GABAR = α1R131Cβ2γ2 GABAR (Rattus norvegicus, UniProt P18508+P62813+P63138, R158C); assay: as above; type: cell-based; details: 1μM flumazenil
Chain of α1R131Cβ2γ2 GABAR (P62813 28-455 R158C): as the sequence (P62813 28-455) above, with R131C counted along it
Chain of α1R131Cβ2γ2 GABAR (P63138 25-474 limits assumed): as the sequence (P63138 25-474 limits assumed) above
Chain of α1R131Cβ2γ2 GABAR (P18508 39-466): as the sequence (P18508 39-466) above

Chain of α1β2P206Cγ2 GABAR (P62813 28-455): as the sequence (P62813 28-455) above
Chain of α1β2P206Cγ2 GABAR (P63138 25-474 P230C limits assumed): as the sequence (P63138 25-474 limits assumed) above, with P206C counted along it
Chain of α1β2P206Cγ2 GABAR (P18508 39-466): as the sequence (P18508 39-466) above

| Structure (SMILES) | inhibition of IGABA (IGABA+DRUG/IGABA) (α1β2P206Cγ2 GABAR) [fold] | maximal attenuation of GABA current (IGABA+DRUG/IGABA) (wild-type α1β2γ2 GABAR) [fold] | inhibition of IGABA (IGABA+DRUG/IGABA) (α1E122Cβ2γ2 GABAR; 100nM DMCM, saturating) [fold] | effect on GABA-gated current (α1E122Cβ2γ2 GABAR; 1μM flumazenil) | effect on GABA-gated current (α1R131Cβ2γ2 GABAR) |
| --- | --- | --- | --- | --- | --- |
| CCc1c(C(=O)OC)ncc2[nH]c3cc(OC)c(OC)cc3c12 [DMCM, 3-carbomethoxy-4-ethyl-6,7-dimethoxy-β-carboline] | 0.45 | 0.62 | 0.45 | – | – |
| CCOC(=O)c1ncn2c1CN(C)C(=O)c1cc(F)ccc1-2 [flumazenil] | – | – | – | had no effect | had no effect |
